# From PubChem BioAssay AID338 (DTP/NCI, 2004)
# Several values for one entry are separate records, joined by “and”; a condition that tells them apart may be missing. Equal values may be shown once. Inconclusive results and toxic doses are left out.
# Tested on: BDF1 mice, P388 leukemia (terephthalanilide-resistant), survival T/C
# Assay: NCI In Vivo Anticancer Drug Screen. Data for tumor model P388 Leukemia resistant to A Terephthalanilide; NSC 38280 (intraperitoneal) in B6D2F1 (BDF1) mice
# Conditions: endpoint: median survival time, higher = longer survival
# Protocol: The antitumor activity of compounds was measured in mice bearing transplantable tumors. Survival or tumor size were measured and the results are expressed as the measurement made in the treated group (T) divided by the measurement made in the vehicle treated control group (C). The tumor model used in this assay is P388 Leukemia resistant to A Terephthalanilide; NSC 38280 (intraperitoneal) in B6D2F1 (BDF1) mice
# [1] = dose: 20.0 mg/kg/injection, schedule: Q01DX010 (ip), vehicle: saline
# [2] = dose: 16.0 mg/kg/injection, schedule: Q01DX010 (ip), vehicle: saline
# [3] = dose: 12.5 mg/kg/injection, schedule: Q01DX010 (ip), vehicle: saline
compound,measurement,setting,value
CC1CCOS(=O)O1 (stereo not drawn),T/C,"dose: 10.0 mg/kg/injection, schedule: Q01DX010 (ip), vehicle: saline",100 % of control
same,T/C,[1],95 % of control
same,T/C,"dose: 40.0 mg/kg/injection, schedule: Q01DX010 (ip), vehicle: saline",100 % of control
Nc1cc(C(=O)Nc2ccc(C3=NCCN3)cc2)cc(C(=O)Nc2ccc(C3=NCCN3)cc2)c1,T/C,[2],111 % of control
same,T/C,"dose: 64.0 mg/kg/injection, schedule: Q01DX010 (ip), vehicle: saline",183 % of control
CS(=O)(=O)OCCCl,T/C,"dose: 18.8 mg/kg/injection, schedule: Q01DX010 (ip), vehicle: saline",105 % of control
same,T/C,"dose: 37.5 mg/kg/injection, schedule: Q01DX010 (ip), vehicle: saline",110 % of control and 111 % of control
same,T/C,"dose: 75.0 mg/kg/injection, schedule: Q01DX010 (ip), vehicle: saline",111 % of control and 115 % of control
same,T/C,"dose: 150.0 mg/kg/injection, schedule: Q01DX010 (ip), vehicle: saline",110 % of control and 122 % of control
CC(CCC(C)OS(C)(=O)=O)OS(C)(=O)=O (stereo not drawn),T/C,"dose: 2.0 mg/kg/injection, schedule: Q01DX010 (ip), vehicle: saline",90 % of control and 95 % of control
same,T/C,"dose: 4.0 mg/kg/injection, schedule: Q01DX010 (ip), vehicle: saline",95 % of control and 100 % of control
same,T/C,"dose: 8.0 mg/kg/injection, schedule: Q01DX010 (ip), vehicle: saline",100 % of control
same,T/C,[2],86 % of control and 100 % of control
N=[N+]=CC(=O)OCC(N)C(=O)O (stereo not drawn),T/C,[3],115 % of control and 116 % of control
same,T/C,"dose: 25.0 mg/kg/injection, schedule: Q01DX010 (ip), vehicle: saline",88 % of control
CN(Cc1cnc2nc(N)nc(N)c2n1)c1ccc(C(=O)N[C@@H](CCC(=O)O)C(=O)O)cc1,T/C,"dose: 0.19 mg/kg/injection, schedule: Q01DX010 (ip), vehicle: other",122 % of control
same,T/C,"dose: 0.38 mg/kg/injection, schedule: Q01DX Z (ip), vehicle: saline",172 % of control and 195 % of control
same,T/C,"dose: 0.75 mg/kg/injection, schedule: Q01DX010 (ip), vehicle: other",194 % of control
same,T/C,"dose: 0.75 mg/kg/injection, schedule: Q01DX Z (ip), vehicle: saline",272 % of control and 277 % of control
same,T/C,"dose: 1.5 mg/kg/injection, schedule: Q01DX010 (ip), vehicle: other",216 % of control
same,T/C,"dose: 1.5 mg/kg/injection, schedule: Q01DX Z (ip), vehicle: saline",213 % of control and 272 % of control
same,T/C,"dose: 3.0 mg/kg/injection, schedule: Q01DX010 (ip), vehicle: other",111 % of control
same,T/C,"dose: 3.0 mg/kg/injection, schedule: Q01DX Z (ip), vehicle: saline",90 % of control and 95 % of control
CC[C@]1(O)C[C@H]2CN(CCc3c([nH]c4ccccc34)[C@@](C(=O)OC)(c3cc4c(cc3OC)N(C=O)[C@H]3[C@@](O)(C(=O)OC)[C@H](OC(C)=O)[C@]5(CC)C=CCN6CC[C@]43[C@@H]65)C2)C1,T/C,"dose: 0.03 mg/kg/injection, schedule: Q01DX010 (ip), vehicle: saline",105 % of control
same,T/C,"dose: 0.03 mg/kg/injection, schedule: Q01DX Z (ip), vehicle: saline",90 % of control and 100 % of control
same,T/C,"dose: 0.06 mg/kg/injection, schedule: Q01DX010 (ip), vehicle: saline",100 % of control
same,T/C,"dose: 0.06 mg/kg/injection, schedule: Q01DX Z (ip), vehicle: saline",95 % of control
same,T/C,"dose: 0.12 mg/kg/injection, schedule: Q01DX010 (ip), vehicle: saline",111 % of control
same,T/C,"dose: 0.13 mg/kg/injection, schedule: Q01DX Z (ip), vehicle: saline",100 % of control
same,T/C,"dose: 0.25 mg/kg/injection, schedule: Q01DX010 (ip), vehicle: saline",94 % of control
same,T/C,"dose: 0.25 mg/kg/injection, schedule: Q01DX Z (ip), vehicle: saline",100 % of control
same,T/C,"dose: 0.5 mg/kg/injection, schedule: Q01DX Z (ip), vehicle: saline",95 % of control and 100 % of control
N=C(N)c1ccc(Nc2ccc(C(=N)N)cc2)cc1,T/C,"dose: 3.0 mg/kg/injection, schedule: Q01DX010 (ip), vehicle: saline",105 % of control
same,T/C,"dose: 6.0 mg/kg/injection, schedule: Q01DX010 (ip), vehicle: saline",100 % of control
same,T/C,"dose: 12.0 mg/kg/injection, schedule: Q01DX010 (ip), vehicle: saline",90 % of control
CN=C(NC)c1ccc(NC(=O)Nc2ccc(NC(=O)Nc3ccc(C(=NC)NC)cc3)cc2)cc1,T/C,"dose: 13.3 mg/kg/injection, schedule: Q01DX010 (ip), vehicle: saline",111 % of control
same,T/C,[1],94 % of control
same,T/C,"dose: 30.0 mg/kg/injection, schedule: Q01DX010 (ip), vehicle: saline",111 % of control
O=C(O)CCCc1ccc(N(CCCl)CCCl)cc1,T/C,"dose: 3.13 mg/kg/injection, schedule: Q01DX010 (ip), vehicle: saline",100 % of control and 105 % of control
same,T/C,"dose: 6.25 mg/kg/injection, schedule: Q01DX010 (ip), vehicle: saline",110 % of control and 116 % of control
same,T/C,[3],105 % of control and 120 % of control
S=P(N1CCOCC1)(N1CC1)N1CC1,T/C,"dose: 2.5 mg/kg/injection, schedule: Q01DX010 (ip), vehicle: saline",105 % of control and 111 % of control
same,T/C,"dose: 5.0 mg/kg/injection, schedule: Q01DX010 (ip), vehicle: saline",94 % of control and 105 % of control
